Measurements as given in publication PMC6520522, “In vitro and in vivo Metabolism of a Potent Inhibitor of Soluble Epoxide Hydrolase, 1-(1-Propionylpiperidin-4-yl)-3-(4-(trifluoromethoxy)phenyl)urea” (Frontiers in Pharmacology, 2019).

How the values were obtained:
[1] = In vitro metabolism of TPPU in liver S9 fractions; type: in vitro ADME, human, monkey, dog, rat, mouse
Protocol: The in vitro study of TPPU metabolism was conducted following previous methods as described (Watanabe and Hammock, [2001]). Briefly, 1 μL of TPPU (1 mM in DMSO; [TPPU]final = 10 μM) was mixed with 94 μL of diluted liver S9 fractions (final, 0.05 mg protein/mL) from human, monkey, dog, rat, and mouse and incubations were conducted in a 10 mL glass vial. After 5 min preincubation at 37°C, the reaction was initiated by adding 5 μL of NADPH regeneration solution. The NADPH regeneration solution was prepared by mixing 50 μL of NADP^+ (100 mM), 50 μL of G6P (500 mM), 50 μL of G6PDH (100 Unit/mL), and 100 μL of sodium phosphate buffer. Incubation without NADPH regeneration solution was used as control. Reactions were kept for 2 h and terminated by addition of 100 μL of ice-cold methanol containing CUDA (200 nM) as an internal standard. The mixture was followed by vigorous mixing for 2 min and centrifuging at 10,000^*g for 10 min. Each supernatant was transferred to an HPLC vial and kept under 4°C until LC-MS analysis.
(§1) LC-MS/MS analysis was conducted on an Agilent SL 1200 series LC system (Agilent, Palo Alto, CA) connected to a 4,000 Qtrap mass spectrometer (Applied Biosystems Instrument Corporation, Foster City, CA) with Turbo V ion source. Liquid chromatography was performed on a Kinetex® C18 column (100 × 2.1 mm, 1.7 μm). Three μL solution was injected onto the column held at 45°C for analysis. Mobile phase A and B were water with 0.1% acetic acid and acetonitrile with 0.1% acetic acid, respectively. The LC flow rate was 300 μL/min.

[2] = Urine levels of TPPU and metabolites after single oral dose in rats; type: in vivo; conditions: male, Sprague Dawley, rat, single oral dose 10 mg/kg TPPU, n = 3; for concentration at 8 h: 8h post dose; for concentration at 12 h: 12h post dose; for concentration at 24 h: 24h post dose; for concentration at 48 h: 48h post dose; for concentration at 72 h: 72h post dose
[3] = Blood pharmacokinetics of TPPU and its metabolites after single oral dose in rats; type: in vivo
Protocol: (§2) Healthy male rats (Sprague Dawley, n = 4) were housed in temperature-controlled housing with ad libitum standard chow and drinking water. Each rat received TPPU (dissolved in 0.5 mL PEG400) at a dose of 10 mg/kg by oral gavage in order to generate significant amounts of metabolites while corresponding to previous efficacious concentration doses. Both blood and urine samples were collected. Blood samples (10 μL) at time points of 0 (before dosing), 0.25, 0.5, 1, 2, 4, 8, 12, 24, 48, and 72 h post dose were collected from the tail vein. Collected blood samples were transferred to Eppendorf tubes containing 90 μL of EDTA solution (0.1% EDTA and 0.1% acetic acid) and were immediately shaken to avoid blood coagulation. The urine and feces samples were passively collected at the time points of 8, 12, 24, 48, and 72 h post dose. TAPU (10 μL) of 1 μM in methanol was added in each blood and urine sample as an internal standard solution. The blood sample extraction was performed with 200 μL ethyl acetate by liquid-liquid extraction. The representative urine samples were subjected to protein precipitation prior to analysis of TPPU and Phase I metabolites. Briefly, urine (10 μL) was treated with 50 μL acetonitrile. After vortex mixing and centrifugation, the supernatant was collected. The feces samples (50–100 mg) were extracted using 600 μL extraction solution (MeOH: EA = 1:1). The mixtures were kept at −20°C overnight to give efficient extraction of TPPU and its metabolites. On day 2, after vortex mixing and centrifugation, the supernatant was collected. The remaining residue was extracted an additional time with 300 μL extraction solution, and the supernatant was combined after centrifugation. The collected supernatants were dried using a speed vacuum concentrator and reconstituted in 50 μL of 100 nM CUDA solution in methanol. In addition, urine (10 μL) was diluted with water (50 μL) and then subjected to analysis of glucuronide or sulfate conjugates.
as §1
(§3) The mass spectrometer was operated in both negative and positive modes. Three different scan types were employed to perform mass spectrometry analysis, including product ion scan, precursor ion scan (optimized parameters in Table S4) and MRM scan (optimized parameters in Table S5).

[4] = Urine levels of TPPU and metabolites after single oral dose in rats; type: in vivo; conditions: rat, single oral dose 10 mg/kg TPPU; for Cmax: male, Sprague Dawley, urine
Protocol: as §2, §1, §3

[5] = Feces levels of TPPU and metabolites after single oral dose in rats; type: in vivo; conditions: rat, single oral dose 10 mg/kg TPPU; for concentration at 8 h: 8h post dose; for concentration at 8 h / concentration at 12 h / concentration at 24 h / concentration at 48 h / concentration at 72 h: n = 3; for concentration at 12 h: 12h post dose; for concentration at 24 h: 24h post dose; for concentration at 48 h: 48h post dose; for concentration at 72 h: 72h post dose
recombinant human sEH = molecular target: T1, recombinant human sEH (Homo sapiens, UniProt P34913); assay: sEH inhibition potency, CMNPC fluorescent assay; type: biochemical
T1 sequence (P34913 1-555): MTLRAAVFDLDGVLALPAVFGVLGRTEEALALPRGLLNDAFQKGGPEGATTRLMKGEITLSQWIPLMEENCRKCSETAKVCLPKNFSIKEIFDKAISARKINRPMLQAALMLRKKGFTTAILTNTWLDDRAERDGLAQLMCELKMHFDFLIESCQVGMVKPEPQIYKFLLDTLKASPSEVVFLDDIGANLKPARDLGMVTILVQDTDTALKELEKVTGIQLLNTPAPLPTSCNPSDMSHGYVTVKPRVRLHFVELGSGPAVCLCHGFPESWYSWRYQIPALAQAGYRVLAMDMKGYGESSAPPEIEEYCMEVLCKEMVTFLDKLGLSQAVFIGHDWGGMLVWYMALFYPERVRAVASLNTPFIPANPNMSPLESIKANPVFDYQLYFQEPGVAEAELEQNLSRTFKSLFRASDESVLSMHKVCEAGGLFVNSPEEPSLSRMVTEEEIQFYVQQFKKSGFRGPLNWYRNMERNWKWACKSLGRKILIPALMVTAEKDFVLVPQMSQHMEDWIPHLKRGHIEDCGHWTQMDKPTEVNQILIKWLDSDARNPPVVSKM
Protocol: Briefly, recombinant human sEH [1 nM in sodium phosphate buffer (0.1 M, pH = 7.4, 0.1 mg/mL BSA)] was incubated with each analyte (0.1 < [I]final < 10,000 nM) at 30°C for 5 min. Then, the reaction was started with the addition to CMNPC ([S]final = 5 μM). The reaction was monitored kinetically for 10 min at 30°C. The formation of the fluorescent product 6-methoxynaphthaldehyde (λexcitation = 330 nm, λemission = 465 nm, 30°C) was measured every 30 s. IC50 values were determined by regression of the remaining activity in function of the inhibitor concentrations. Assays were run in triplicate and IC50 values are the averages of three replicates.

Compound: CCC(=O)N1CCC(NC(=O)Nc2ccc(OC(F)(F)F)cc2)CC1 [TPPU, 1-(1-propionylpiperidin-4-yl)-3-(4-(trifluoromethoxy)phenyl)urea]
- TPPU remaining after incubation with liver S9 fractions ([1]; 2 h of incubation, TPPU 10 μM, 0.05 mg protein/mL): over 90%
- concentration at 8 h [2]: 5.7 ng/mL
- concentration at 12 h [2]: 5.1 ng/mL
- concentration at 24 h [2]: 1.6 ng/mL
- concentration at 48 h [2]: 4.6 ng/mL
- concentration at 72 h [2]: 1.1 ng/mL
- share of the TPPU nucleus in the blood ([3]; rat blood, oral 10 mg/kg TPPU): over 90%
- Cmax [4]: 5700 ng/mL
- time of Cmax in urine [4]: 8 h
- concentration at 8 h ([5]; male, Sprague Dawley, feces): 1.8 ng/mL
- concentration at 12 h ([5]; male, Sprague Dawley, feces): 2.4 ng/mL
- concentration at 24 h ([5]; male, Sprague Dawley, feces): 1.9 ng/mL
- concentration at 48 h ([5]; male, Sprague Dawley, feces): 7 ng/mL
- concentration at 72 h ([5]; male, Sprague Dawley, feces): 1.5 ng/mL
- Cmax ([5]; male, Sprague Dawley, feces): 24000 ng/mL
- time of Cmax in feces [5]: 12 h

Compound: CC(O)C(=O)N1CCC(NC(=O)Nc2ccc(OC(F)(F)F)cc2)CC1 (centres unmarked) [Compound M1, 1-(1-(2-hydroxypropanoyl)piperidin-4-yl)-3-(4-(trifluoromethoxy)phenyl)urea]
- formation of metabolite in liver S9 fractions ([1]; with NADPH regeneration system, rat, mouse, dog, monkey, human, 2 h): found in all species tested
- formation of metabolite in liver S9 fractions in the absence of a NADPH generation system ([1]; without NADPH, liver S9 fractions (Figure S1: human)): failed to be detected
- concentration at 8 h [2]: 8 ng/mL
- concentration at 12 h [2]: 1.2 ng/mL
- concentration at 24 h [2]: 5.6 ng/mL
- concentration at 48 h [2]: 3.6 ng/mL
- concentration at 72 h [2]: 2.1 ng/mL
- half-life ([3]; male, Sprague Dawley, rat, whole blood, po, 10 mg/kg, oral gavage 10 mg/kg, n = 4, read-out: T1/2 (half-life) (converted)): ~1200 min
- T1/2 (half-life) ([3]; rat blood, oral gavage 10 mg/kg, n = 4, 10 mg/kg): 20 ± 3 h
- share of the total TPPU-related exposure in blood ([3]; rat blood, single oral dose of TPPU, over 72 h): ~ 9.6%
- IC50 (recombinant human sEH; CMNPC fluorescent assay, recombinant human sEH 1 nM, 30°C, average of three replicates, read-out: HsEH IC50): 3 ± 0.5 nM
- fold more potent than M2 toward human sEH (recombinant human sEH; ratio of IC50 values, versus M2): ~ 5 fold
- Cmax [4]: 12000 ng/mL
- time of Cmax in urine [4]: 12 h
- concentration at 8 h ([5]; male, Sprague Dawley, feces): 3.7 ng/mL
- concentration at 12 h ([5]; male, Sprague Dawley, feces): 5.7 ng/mL
- concentration at 24 h ([5]; male, Sprague Dawley, feces): 1.1 ng/mL
- concentration at 48 h ([5]; male, Sprague Dawley, feces): 8.8 ng/mL
- concentration at 72 h ([5]; male, Sprague Dawley, feces): 4.4 ng/mL
